Tests used:
Assay type in all cases: cell-based
[1] = tested on: Pseudomonas aeruginosa strain; test: Electronic staining with PTA aqueous solution and SEM observation after antibacterial agent treatment (FIG. 6); details: cultured at 37°C for 30 minutes, 10% PTA aqueous solution, 5 kV backscattered electron image
Protocol: As an example, in FIG. 6, a Pseudomonas aeruginosa strain is used as a material, bacteria in a control group not treated with the antibacterial agent and bacteria in a test group treated with antibacterial agent colistin are cultured at 37° C. for 30 minutes, the bacteria are collected on a track-etched membrane and fixed with glutaraldehyde of 2.5%, a specimen is prepared by performing electronic staining for 2 minutes by using a PTA aqueous solution having weight concentration of 10% as a stain and a platinum blue aqueous solution as a comparison, and a backscattered electron image is obtained by SEM observation at an acceleration voltage of 5 kV.
In the specimen stained with the PTA aqueous solution, an image of bacteria having low image brightness is observed in the control group, and an image of bacteria having high image brightness is observed in the test group. On the other hand, in the specimen stained with the platinum blue aqueous solution, the image brightness of the bacteria in both the control group and the test group is high, and no significant difference is observed between the control group and the test group.

[2] = tested on: colistin-resistant Pseudomonas aeruginosa strain; test: PTA staining / SEM backscattered electron image analysis of colistin-treated bacteria over time; details: colistin 2 mg/L, 37°C, after 60 minutes
Protocol: (§1) A Pseudomonas aeruginosa strain whose colistin sensitivity is known from an MIC value measured by a method of related art and a Pseudomonas aeruginosa strain whose colistin resistance is known are used. A bacterial solution suspended in a medium at initial concentration of 10^6/ml is treated with colistin of 2 mg/L, which is concentration that distinguishes between sensitive bacteria and resistant bacteria by the method of related art, is treated and cultured at 37° C., and a certain amount of the bacterial solution is sampled over time.
A polycarbonate track-etched membrane having a hole diameter of 0.2 μm is used as specimen equipment for the SEM observation of bacteria, and bacteria are uniformly collected in a certain area on the membrane. Conductivity is given to the specimen by pre-vaporizing platinum-palladium on a surface of the membrane. […]
(§2) Next, SEM observation is performed on each specimen from which the series of backscattered electron image (701) is obtained and a specimen in the control group prepared at the same timing, and twenty-five images per specimen and images of 300 to 500 bacterial cells are acquired. The number of images taken and the number of bacterial cells to be imaged are not limited to the above-described number as long as reproducibility of quantitative analysis can be ensured. […]

[3] = tested on: colistin-sensitive Pseudomonas aeruginosa strain; test: PTA staining / SEM backscattered electron image analysis of colistin-treated bacteria over time (FIG. 7); details: colistin 2 mg/L, 37°C, initial concentration 10^6/ml
Protocol: as §1
A polycarbonate track-etched membrane having a hole diameter of 0.2 μm is used as specimen equipment for the SEM observation of bacteria, and bacteria are uniformly collected in a certain area on the membrane. Conductivity is given to the specimen by pre-vaporizing platinum-palladium on a surface of the membrane.
After washing a medium component on a bacterial collection surface with physiological saline, bacteria are treated and fixed for 5 minutes with a glutaraldehyde fixing solution of 2.5% having a protein cross-linking effect in order to prevent the morphological change of the bacteria. After washing the excess fixing solution with water, the bacteria are treated with the PTA aqueous solution having the weight concentration of 10% for 2 minutes and stained. After washing the excess stain with water, the bacteria are dried on the track-etched membrane to form a specimen for the SEM observation.
SEM observation conditions are set to an acceleration voltage of 5 kV, backscattered electron detection, and magnification of 7,000 times. […]
as §2

For colistin, which “PTA staining intensity / image brightness of treated bacteria” value [1] is on record?
The value was “strong PTA staining”.

And the “ratio of the microbe 1 (corresponds to viability)” value (“ratio” for short) [2]?
Its value is “about 95%”.

What about the “ratio” value ([3]; after 8 minutes) of the same substance?
The value was 80%.

And the “ratio” value ([3]; after 30 minutes)?
The value was 60%.

What about the “ratio” value ([3]; after 60 minutes) of the same substance?
The value was 0%.
